Assays:
[1] = The inhibitory activity determined by using toluene-permeabilized cells of Escherichia coli and the specific nucleoside substrate of the translocase UMA5
[2] = Inhibitory activity of compound was determined against bacterial translocase

Compound	IC50 [1]	IC50 [2]
NC[C@H]1O[C@@H](OC[C@H]2O[C@@H](n3ccc(=O)[nH]c3=O)[C@H](O)[C@@H]2O)[C@H](O)[C@@H]1O	50 µM	
NC[C@H]1O[C@@H](O[C@@H](CO)[C@H]2O[C@@H](n3ccc(=O)[nH]c3=O)[C@H](O)[C@@H]2O)[C@H](O)[C@@H]1O		425 µM
NC[C@H]1O[C@@H](O[C@H](CO)[C@H]2O[C@@H](n3ccc(=O)[nH]c3=O)[C@H](O)[C@@H]2O)[C@H](O)[C@@H]1O		5 µM
CSCCC(NC(=O)NC(Cc1cccc(O)c1)C(=O)O)C(=O)NC(C(=O)N/C=C1/CC(O)C(N2CCC(=O)NC2=O)O1)C(C)N(C)C(=O)C(N)Cc1cccc(O)c1 (stereo not given)		0.065 µM
CC(=O)N[C@H]1[C@@H](O[C@@H]2O[C@H](CC(O)[C@H]3O[C@@H](n4ccc(=O)[nH]c4=O)[C@H](O)[C@@H]3O)[C@H](O)[C@H](O)[C@H]2NC(=O)/C=C/CC(C)C)O[C@H](CO)[C@@H](N)[C@@H]1O (stereo not given in full) [TUNICAMYCIN]		0.48 µM

Source: ChEMBL document CHEMBL1133275, “Synthesis of the nucleoside moiety of liposidomycins: elucidation of the pharmacophore of this family of MraY inhibitors” (Bioorg Med Chem Lett, 2000)
